In the supplement of paper PMC11127212:

Experiments:
[1] = collision cross section (TWIMS, N2) of ion [M+Na]+; higher = larger gas-phase ion cross section; conditions: ionization: ESI positive; LC: HILIC, pH 3.0 ammonium formate
Procedure: (§1)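 Reference standards (20-100 uM) were separated by HILIC UPLC (BEH HILIC, 45 °C): acidic pH 3.0 ammonium formate/formic acid for ESI+ and basic pH 9.0 ammonium acetate/ammonia for ESI-. They were analysed on a Synapt G2-Si traveling-wave IMS-QTOF with nitrogen drift gas (WH 30 V; WV 800 m/s in ESI+ and 1000 m/s in ESI-). CCS (TWCCSN2, Å2) was calibrated with Major Mix IMS/TOF and LockCCS leucine enkephalin; inter-day RSD was <1%.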

[2] = retention time on BEH HILIC column (20 min gradient, 0.4 mL/min); higher = later elution; conditions: LC: HILIC
Procedure: as §1, with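 “ESI-).” for “ESI-). CCS (TWCCSN2, Å2) was calibrated with Major Mix IMS/TOF and LockCCS leucine enkephalin; inter-day RSD was <1%.”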

[3] = collision cross section (TWIMS, N2) of ion [M-H]-; higher = larger gas-phase ion cross section; conditions: ionization: ESI negative; LC: HILIC, pH 9.0 ammonium acetate
Procedure: as §1, with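 “ESI-).” for “ESI-). CCS (TWCCSN2, Å2) was calibrated with Major Mix IMS/TOF and LockCCS leucine enkephalin; inter-day RSD was <1%.”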

[4] = collision cross section (TWIMS, N2) of ion [M+H]+; higher = larger gas-phase ion cross section; conditions: ionization: ESI positive; LC: HILIC, pH 3.0 ammonium formate
Procedure: as §1, with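 “ESI-).” for “ESI-). CCS (TWCCSN2, Å2) was calibrated with Major Mix IMS/TOF and LockCCS leucine enkephalin; inter-day RSD was <1%.”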

[5] = ionization: ESI positive, pH 3.0 ammonium formate
[6] = ionization: ESI negative, pH 9.0 ammonium acetate

SMILES | collision cross section [1] [Å²] | retention time on BEH HILIC column [2, 5] [min] | collision cross section [3] [Å²] | retention time on BEH HILIC column [2, 6] [min] | collision cross section [4] [Å²]
OC[C@H]1O[C@@H](O[C@H]2[C@H](O)[C@@H](O)[C@@H](O)O[C@@H]2CO)[C@H](O)[C@@H](O)[C@H]1O [D-lactose] | 171.29 | 6.42 | 172.39 | 7.33 | 
O=C(CO)[C@@H](O)[C@H](O)[C@H](O)COP(=O)(O)O [Fructose 6-phospahte] | 151.18 | 8.86 | 146.38 | 11.9 | 
O=C(O)CC(O)c1cccc(O)c1 (centres undefined) [3-(3-hydroxyphenyl)-3-hydroxypropanoic acid] | 146.99 |  | 138.92 |  | 
CC(=O)SCCNC(=O)CCNC(=O)[C@H](O)C(C)(C)COP(=O)(O)OP(=O)(O)OC[C@H]1O[C@@H](n2cnc3c(N)ncnc32)[C@H](O)[C@@H]1OP(=O)(O)O [Acetyl-CoA] |  | 12 | 256.25 | 11.8 | 248.16
OC[C@H]1O[C@](O)(CO)[C@@H](O)[C@@H]1O [D-fructose] | 140.11 | 3.49 |  |  | 
CCCCC/C=C\C/C=C\C/C=C\C/C=C\CCCC(=O)O [Arachidonic acid] |  | 0.77 | 186.98 | 0.72 | 178.98
OC[C@@]1(O)OC[C@@H](O)[C@H](O)[C@@H]1O [D-tagalose] | 136.93 | 3.02 |  |  | 
NCCc1ccc(O)c(O)c1 [Dopamine] |  | 4.6 | 130.85 | 4.35 | 139.55
OC[C@@H](O)[C@@H](O)CO [Erythritol] | 128.38 | 2.08 |  |  | 
Nc1ncnc2c1ncn2[C@@H]1O[C@H](COP(=O)(O)O)[C@@H](O)[C@H]1O [AMP] |  | 9.15 | 175.53 | 12 | 167.89
OC1OC[C@@H](O)[C@H](O)[C@H]1O (stereo partly drawn) [D-xylose] | 131.78 | 2 |  |  | 
N[C@@H](CCC(=O)N[C@@H](CS)C(=O)NCC(=O)O)C(=O)O [Glutathione] |  | 9.46 | 166.5 | 9.37 | 166.01
OC[C@H]1O[C@H](O)[C@H](O)[C@@H](O)[C@H]1O [D-galactose] | 138.53 | 4.2 |  |  | 
CC/C=C\C/C=C\C/C=C\C/C=C\C/C=C\CCCC(=O)O [Eicosapentaenoic acid] |  | 0.75 | 190.11 | 0.72 | 177.23
Nc1ccccc1C(=O)O [2-aminobenzoic acid] |  | 0.82 | 126.13 | 0.97 | 124.05
Nc1ncnc2c1ncn2[C@@H]1O[C@H](CO)[C@@H](O)[C@H]1O [Adenosine] |  | 2.24 | 155.95 | 2.36 | 155.89
NC(=O)NCCC[C@H](N)C(=O)O [Citrulline] |  | 8.89 | 135.18 | 9.07 | 137.33
O[C@H]1[C@H](O)[C@H](O)OC[C@H]1O [D-arabinose] | 131.78 | 2.28 |  |  | 
Nc1nc(=O)c2[nH]cnc2[nH]1 [Guanine] |  | 3.62 | 125.12 | 3.65 | 128.49
OC[C@H]1O[C@@H](O)[C@H](O)[C@@H](O)[C@@H]1O [D-glucose] | 143.24 | 3.88 |  |  | 
CCC(C)CCC(=O)O (centres undefined) [4-methylhexanoic acid] |  | 0.99 | 134.11 | 0.88 | 137.57
Nc1c(C(=O)O)c2nc3c(C(=O)O)cccc3oc-2cc1=O [Cinnavalininate] |  | 2.66 | 156.31 | 2.92 | 156.61

Next, values leading:

collision cross section [1] [Å²] | retention time on BEH HILIC column [2, 5] [min] | collision cross section [3] [Å²] | retention time on BEH HILIC column [2, 6] [min] | collision cross section [4] [Å²] | SMILES
135.32 | 3.25 |  |  |  | O=C[C@H](O)[C@H](O)[C@H](O)[C@@H](O)CO [L-talose]
136.98 | 4.84 | 128.96 | 5.03 |  | O=C(O)CCCC(=O)C(=O)O [Oxoadipic acid]
 | 6.77 | 123.74 | 5.48 | 126.02 | O=C1CC[C@@H](C(=O)O)N1 [Pyroglutamic acid]
 | 4.01 | 134.49 | 4.13 | 135.88 | O=C(O)c1cc(=O)c2ccccc2[nH]1 [Kynurenic acid]
 | 12.6 | 216.04 | 12.5 | 226.92 | N[C@@H](CCC(=O)N[C@@H](CSSC[C@H](NC(=O)CC[C@H](N)C(=O)O)C(=O)NCC(=O)O)C(=O)NCC(=O)O)C(=O)O [Oxidized glutathione]
 | 1.03 | 144.8 | 1.03 | 148.93 | CCCCCCCCC(=O)OC [Methyl nonanoate]
 | 10.8 | 136.62 | 11.1 | 136.63 | N=C(N)NCCC[C@H](N)C(=O)O [L-arginine]
 | 6.85 | 171.56 | 6.8 | 174.12 | Nc1ncnc2c1ncn2[C@@H]1O[C@@H]2COP(=O)(O)O[C@H]2[C@H]1O [cAMP]
 | 5.57 | 184.43 | 3.11 | 182.66 | Cc1cc2nc3c(=O)[nH]c(=O)nc-3n(C[C@H](O)[C@H](O)[C@H](O)CO)c2cc1C [Riboflavin]
 | 0.84 | 137.2 | 1.13 | 137.86 | CCCCCCC(=O)OC [Methyl heptanoate]
 | 12.6 | 129.28 | 12.7 | 131.08 | N[C@@H](Cc1cnc[nH]1)C(=O)O [L-histidine]
140.74 | 1.08 |  |  |  | O=C(O)C(CO)c1ccccc1 (centres undefined) [Tropate]
 | 2.28 | 121.62 | 2.31 | 125.05 | Oc1ncnc2nc[nH]c12 [Hypoxanthine]
 | 11.3 | 135.63 | 11.6 | 131.69 | NCCCC[C@H](N)C(=O)O [L-lysine]
 | 5.92 | 138.51 | 6.02 | 137.14 | N[C@@H](Cc1ccccc1)C(=O)O [L-phenylalanine]
 | 0.73 | 201.16 | 17.5 | 206.18 | C=C1CC[C@H](O)C/C1=C/C=C1\CCC[C@]2(C)[C@@H]([C@H](C)CCCC(C)C)CC[C@@H]12 [Vitamin D3]
 | 0.73 | 212.59 | 0.73 | 216.53 | Cc1c(C)c2c(c(C)c1O)CC[C@@](C)(CCC[C@H](C)CCC[C@H](C)CCCC(C)C)O2 [a-tocopherol]
 | 6 | 119.39 | 6.14 | 126.38 | NCCS(=O)(=O)O [Taurine]
 | 11.3 | 142.48 | 11.2 | 144 | N[C@@H](CCSC[C@H](N)C(=O)O)C(=O)O [L-cystathionine]
